≈ marks a conversion by molar mass, not a printed value. Where two headings read alike, the source gives them in different places.
Experiments:
HepG2 cells [1] = experiment: Identification of metabolic pathways in HepG2 cells by LC-MS/MS; assay type: in vitro ADME, human; conditions: HepG2 cells incubated for 24 h
Protocol: For recognition of the metabolic characteristics of quinocetone (3a), deoxyquinocetone (5a), olaquindox, 3-methyl-2-(3-fura-2-propenoyl)-quinoxaline -1,4-dioxide 6, and 3-methyl -2-quinoxaline-2-carboxylate-1,4-dioxide 8, HepG2 cells were seeded at 6× 10^4 cells/ml density in 24-well plates. After 24 h incubation, the medium was replaced with fresh medium containing various concentrations ([…]) of test compounds. After 24 h incubation, the medium was collected and extracted with ethyl acetate then centrifuged at […] for 20min at 4 °C. The organic supernatant was evaporated under nitrogen atmosphere at 40 °C, the residue was dissolved in 200μL acetonitrile. The aliquot was filtered by a 0.22 μM membrane then analyzed. The blank is conducted in the absence of pharmaceuticals.
All experiments were performed with a Waters Alliance 2695 LC system (Waters) and a quattro micro API quadruple mass spectrometer (Micromass, Manchester, UK) equipped with an electro-spray ion source (ESI).
LC analysis was carried out on an XTerra C18 HPLC column (2.1 mm×100 mm, 3.5 μM) (Waters, Milford, MA, USA) equipped with a guard column (XTerra C18 2.1 mm×100 mm, 3.5μM) (Waters, Milford, MA, USA). […]
The MS instrument was used for analysis operating in a positive ion mode. […] The spectra was recorded in the range m/z 50~500 for full scan MS analysis. […]

[2] = tested on: Clostridium perfringen CVCC52,8604; experiment: In-vitro antibacterial activity, MIC by broth dilution (anaerobic chamber); assay type: cell-based; conditions: Clostridium, 24 h
Protocol: (§1) All test compounds were dissolved in dimethyl sulfoxide (DMSO, Sigma, USA) and then diluted in Dulbecco’s modified Eagle’s medium (DMEM, Gibco, USA) at desired concentrations for cell proliferation analyses or diluted in nutrient broth medium for antimicrobial susceptibility testing respectively. The final concentration of DMSO in the DMEM culture medium was under 0.1% (v:v).
(§2) The preliminary antibacterial activities were obtained for selected compounds against various bacteria, namely: Staphyloccocus aureus ATCC25923 (Gram-positive bacteria), Clostridium perfringen CVCC52,8604 (anaerobes bacteria), Salmonella pullorum (Gram-negative bacteria), Escherichia coli ATCC25922 (Gram negative bacteria) and Aeromonas hydrophila (Gram-negative bacteria) were used in the study. Each strain was cultured in appropriate broth medium. Clostridium perfringen was incubated in an anaerobic chamber. The minimum inhibitory concentration (MIC) for each test compound was estimated using the broth dilution method. The MIC’s was determined for each strain/compound pairs that presented antimicrobial activity. The method was modified from Mohapatra›s methods ([14], [15]). Cell suspensions were prepared in 2 mL of liquid medium with concentrations of various tests of compounds in 15 mL culture tubes by inoculation with 100 μL of 10^6 cfu/mL from each stock. The cultures were incubated at 28 °C or 37 °C for 24 h. Tubes showing no visible turbidity represented the MIC, and subsequently, were inoculated on the right side of the 9cm sterile nutrient agar plates without various test compounds and incubated for 24 h (Clostridium perfringen was incubated in an anaerobic chamber.). The least concentration, at which no growth was observed, represented the minimum bactericidal concentration (MBC) ([16]).

[3] = tested on: Escherichia coli ATCC25922; experiment: In-vitro antibacterial activity, MIC by broth dilution; assay type: cell-based; conditions: Escherichia coli, ATCC25922; broth dilution, 24 h; read-out: MIC values Escherichia coli ATCC25922
Protocol: as §1, §2

[4] = tested on: Staphyloccocus aureus ATCC25923; experiment: as above; assay type: cell-based; conditions: broth dilution, 24 h; read-out: MIC values Staphyloccocus aureus ATCC25923
Protocol: as §1, §2

Salmonella pullorum = experiment: as above; assay type: cell-based; conditions: Salmonella enterica, PULLORUM, 24 h
Protocol: as §1, §2

Aeromonas hydrophila [5] = experiment: as above; assay type: cell-based; conditions: Aeromonas hydrophila, 24 h, read-out: MIC values Aeromonas hydrophila
Protocol: as §1, §2

[6] = tested on: Gram-positive and Gram-negative bacteria; experiment: Antibacterial activity class based on the MIC results; assay type: cell-based
Protocol: as §2
In this study, activity of quinoxaline-1, 4-dioxides and their deoxygenations was tested against selected Gram-negative bacteria (Escherichia coli, Salmonella pullorum and Aeromonas hydrophila), Gram-positive bacteria (Staphyloccocus aureus and Clostridium perfringen). The in-vitro antibacterial activity was based on the MIC results: Strong antibacterial activity, if MIC is less than 50 μg/mL; Moderate, if MIC is in between 50 and 250 μg/mL; No activity, if MIC is more than 500 μg/mL.

HepG2 cells [7] = experiment: In-vitro cytotoxicity, MTT cell proliferation assay; assay type: cell-based, human; conditions: 24 h incubation, concentration reducing viable cells by 50%
Protocol: as §1
(§3) HepG2 and normal human Chang liver cells were obtained from the Institute of Biochemistry and Cell Biology, Shanghai Institutes for Biological Sciences, Chinese Academy of Sciences (Shanghai, China). HepG2 and normal human Chang liver cells were cultured at 37˚Cwith 5% CO2 in DMEM supplemented with 2% L-glutamine, 10% fetal bovine serum (Gibco, USA), 100 U/mL penicillin and 100 […] (Gibco, USA).
(§4) The methodology for evaluating the cytotoxicity inhibitory activity of various test compounds towards cell proliferation has been described previously ([11], [17]). Cell proliferation inhibitory analyses were carried out using the 3-(4,5-dimethylthiazole-2-yl)-2,5-diphenyl tetrazolium bromide (MTT, Sigma, USA) assay. Briefly, cancers HepG2 and normal human Chang liver cells were harvested and resuspended in fresh growth medium. A 100 μL cell suspension (5 × 10^4 cells/mL) was aliquoted into each well of a 96-well culture plate. After 12 h incubation, the medium was replaced with fresh medium containing various concentrations of test compounds. The cells were then incubated for another 24 h. At the end of exposure, 10 μL of MTT solution (5 mg/mL) was added, and the cells were incubated for 4 h at 37 °C. The cells were treated with 100 μL DMSO, and absorbance was recorded at 570 nm using a microplate ELISA reader (ELX800, Bio-Tek, USA). All experiments were performed at least thrice, and data were presented as the mean of sixplicate wells ± standard deviation (SD). Cell inhibition was calculated as follows:
(§5) (OD of control group − OD of experimental group) / (OD of control group − OD of blank group) ×100%. The IC50 value for a compound was calculated using SPSS.

[8] = tested on: HepG2, Vero, L-02 and Chang liver cell lines; parameters: method as in PMID 19061932, PMID 22840332; conditions: in-vitro, ref [7],[11]; cited from earlier work
[9] = tested on: normal human Chang liver cells; experiment: In-vitro cytotoxicity, MTT cell proliferation assay; assay type: cell-based; conditions: 24 h incubation, concentration reducing viable cells by 50%
Protocol: as §1, §3, §4, §5

Aeromonas hydrophila [10] = experiment: Minimum bactericidal concentration (MBC), subculture on nutrient agar; assay type: cell-based; conditions: least concentration with no growth on agar plates, 24 h
Protocol: as §2, with “The least concentration, at which no growth was observed, represented the minimum bactericidal concentration (MBC) ([16]).” left out

[11] = Homo sapiens, Chang liver, 24 h

SMILES | categories of metabolites in HepG2 cells (HepG2 cells [1]) | MIC [2] [µg/mL] | MIC [3] [µg/mL] | MIC [4] [µg/mL] | MIC (Salmonella pullorum) [µg/mL] | MIC (Aeromonas hydrophila [5]; broth dilution) [µg/mL] | antibacterial activity against Gram-positive and Gram-negative bacteria [6] | IC50 (HepG2 cells [7]) [µM] | IC50 (HepG2 cells [7]; Homo sapiens, HepG2, 24 h) [µM] | growth inhibitory effects [8] | IC50 [9] [µM] | IC50 [9, 11] [µM] | melting point [°C] | MIC (Aeromonas hydrophila [5]) [µg/mL] | MBC (Aeromonas hydrophila [10]) [µg/mL]
Cc1c(C(=O)C=Cc2ccccc2)[n+]([O-])c2ccccc2[n+]1[O-] [Compound 3a, 3-Methyl-2-(3-phenyl-2-propenoyl)-quinoxaline-1,4-dioxide, reference compound] | reduction, hydroxylation, and a combination of reduction and hydroxylation | 196 (≈ 639 µM) | 97.9 (≈ 320 µM) | 24.5 (≈ 79.9 µM) | 49 (≈ 160 µM) | 49 (≈ 160 µM) | strong or moderate activity | 49.3 ± 1.94 | 49 | significant growth inhibitory effects | 63.3 ± 5.55 | 63 |  |  | 
CCOC(=O)c1nc2ccccc2nc1C [Compound 9, 3-methyl-2-quinoxaline-2-carboxylate] |  | > 500 | > 500 | > 500 | > 500 | 138 (≈ 639 µM) | little or no activity |  | 547 ± 7.71 |  |  | 610 ± 18.4 |  |  | 
Cc1c(C(=O)/C=C/c2cccc([N+](=O)[O-])c2)[n+]([O-])c2ccccc2[n+]1[O-] [Compound 3d] |  | > 500 | > 500 | 449 (≈ 1280 µM) | 56.2 (≈ 160 µM) | 449 (≈ 1280 µM) | little or no activity |  | 380 ± 10.6 |  |  | 411 ± 17.1 |  |  | 
Cc1c[n+]([O-])c2ccccc2[n+]1[O-] [Compound 11, 3-methyl-quinoxaline-1,4-dioxide] |  | 225 (≈ 1280 µM) | 56.3 (≈ 320 µM) | 451 (≈ 2560 µM) | 451 (≈ 2560 µM) |  | little or no activity |  | 465 ± 28.8 |  |  | 452 ± 6.86 | 173.5 to 176.8 | 225 (≈ 1280 µM) | 
Cc1c(C(=O)NCCO)[n+]([O-])c2ccccc2[n+]1[O-] [olaquindox, n-(2-hydroxyethyl)-3-methyl-2-quinoxalinecarboxamide 1,4-dioxide, reference compound] |  | 67.3 (≈ 256 µM) | 21 (≈ 79.9 µM) | 42.1 (≈ 160 µM) | 84.2 (≈ 320 µM) | 21 (≈ 79.9 µM) | strong or moderate activity |  | 893 ± 14.7 | much lower than quinocetone |  | 815 ± 31.2 |  |  | 84.2 (≈ 320 µM)
